{"source": "patent US20110009351A1", "about": "“SCREENING ASSAY TO IDENTIFY CORRECTORS OF PROTEIN TRAFFICKING DEFECTS” (Traffick Therepeutics Inc., priority 2007, published 2011)", "key": {"ΔF508-CFTR [1]": {"molecular_target": "T1, ΔF508-CFTR (Mus musculus, UniProt P26361, DEL508-508)", "T1 construct": "from tissue; host or cells: ileal mucosa of homozygous ΔF508 mice (A11 ex vivo, A12 after gavage); salivary secretion in the living mouse (A13)", "T1 sequence (P26361 with tags, fused parts or gaps DEL508-508)": "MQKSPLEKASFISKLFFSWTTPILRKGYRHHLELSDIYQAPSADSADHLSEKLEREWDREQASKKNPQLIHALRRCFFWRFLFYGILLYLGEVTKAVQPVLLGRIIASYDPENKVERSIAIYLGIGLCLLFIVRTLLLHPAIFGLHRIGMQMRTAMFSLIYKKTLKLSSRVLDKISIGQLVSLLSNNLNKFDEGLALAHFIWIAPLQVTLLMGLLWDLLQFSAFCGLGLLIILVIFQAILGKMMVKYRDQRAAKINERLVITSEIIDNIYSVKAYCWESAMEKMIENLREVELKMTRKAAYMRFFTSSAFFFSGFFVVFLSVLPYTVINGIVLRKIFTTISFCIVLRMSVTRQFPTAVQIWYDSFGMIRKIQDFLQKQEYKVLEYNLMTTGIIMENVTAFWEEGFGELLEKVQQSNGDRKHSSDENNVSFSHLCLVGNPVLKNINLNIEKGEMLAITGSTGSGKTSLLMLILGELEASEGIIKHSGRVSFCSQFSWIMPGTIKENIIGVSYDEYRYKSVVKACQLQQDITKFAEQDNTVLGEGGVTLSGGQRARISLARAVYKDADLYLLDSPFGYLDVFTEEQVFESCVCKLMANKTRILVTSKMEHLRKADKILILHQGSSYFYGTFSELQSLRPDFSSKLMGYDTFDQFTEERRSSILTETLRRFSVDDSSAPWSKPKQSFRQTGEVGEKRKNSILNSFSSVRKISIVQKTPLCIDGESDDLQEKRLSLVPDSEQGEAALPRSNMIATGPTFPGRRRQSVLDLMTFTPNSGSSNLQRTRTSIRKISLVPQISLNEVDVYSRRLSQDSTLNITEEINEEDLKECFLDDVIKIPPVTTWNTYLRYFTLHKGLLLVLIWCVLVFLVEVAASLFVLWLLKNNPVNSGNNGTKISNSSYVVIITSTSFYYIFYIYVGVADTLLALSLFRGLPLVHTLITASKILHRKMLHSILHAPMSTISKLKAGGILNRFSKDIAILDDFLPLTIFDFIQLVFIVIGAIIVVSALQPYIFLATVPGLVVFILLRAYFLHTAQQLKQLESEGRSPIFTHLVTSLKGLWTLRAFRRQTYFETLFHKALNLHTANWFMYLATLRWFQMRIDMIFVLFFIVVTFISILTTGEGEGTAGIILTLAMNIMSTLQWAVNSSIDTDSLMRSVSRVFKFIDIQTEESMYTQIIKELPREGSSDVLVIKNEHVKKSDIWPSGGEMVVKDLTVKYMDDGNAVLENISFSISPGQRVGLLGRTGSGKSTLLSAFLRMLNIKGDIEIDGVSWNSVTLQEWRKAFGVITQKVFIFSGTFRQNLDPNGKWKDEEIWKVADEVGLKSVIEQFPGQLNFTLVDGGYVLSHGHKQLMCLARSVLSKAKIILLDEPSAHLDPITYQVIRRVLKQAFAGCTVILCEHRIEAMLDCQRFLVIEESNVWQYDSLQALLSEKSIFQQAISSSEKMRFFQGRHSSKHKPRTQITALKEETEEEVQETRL", "assay": "in vivo treatment of ΔF508-CFTR mice by gavage, Isc of freshly isolated ileum", "details": "50 mg/kg by gavage, once per day, 2 days", "method": "(§1) Glafenine was tested ex vivo and in vivo using ileum from homozygous Δ508-CFTR mice (CFTR^tm1 Eur; van Doorninck et al., 1995) and wild-type littermates controls. Mice were 14-17 weeks old, weighed 24-30 g, and were genotyped by standard PCR methods using tail DNA. The mice were kept in a pathogen-free environment in the animal facility at McGill University and fed a high protein diet (SRM-A, Hope Farms, Woerden, NL) modified to contain pork instead of beef. All procedures followed Canadian Institutes of Health Research (CIHR) guidlines and were approved by the faculty Animal Care Committee. For ex vivo experiments, ileal mucosa was stripped of muscle and incubated in William's E-Glutamax medium supplemented with insulin (10 μg/ml), 100 U/ml penicillin, and 100 μg/ml streptomycin and dexamethasone (1.6 ng/ml) containing 0.1% DMSO (control) or DMSO containing glafenine for 5 h. The tissue was then rinsed repeatedly and mounted in Ussing chambers to measure […]. For in vivo experiments, mice were feed once per day by gavage with saline containing glafenine (50 mg/kg) or vehicle alone (0.1% DMSO). After 2 days of glafenine treatment the mice were euthanized under CO2, the intestine was dissected and the short circuit current was measured as described above."}, "ΔF508-CFTR [2]": {"molecular_target": "T1, ΔF508-CFTR", "assay": "ex vivo treatment of ileum from ΔF508-CFTR mice, Isc response to forskolin+genistein", "details": "20 μM, 5-6 h ex vivo", "method": "as §1"}, "F508del CFTR": {"molecular_target": "T2, F508del CFTR (Homo sapiens, UniProt P13569, DEL508-508)", "T2 construct": "expressed in transfected cells; host or cells: HEK293 Griptite cells stably expressing F508del CFTR, transiently transfected with halide-sensitive eYFP", "T2 sequence (P13569 with tags, fused parts or gaps DEL508-508)": "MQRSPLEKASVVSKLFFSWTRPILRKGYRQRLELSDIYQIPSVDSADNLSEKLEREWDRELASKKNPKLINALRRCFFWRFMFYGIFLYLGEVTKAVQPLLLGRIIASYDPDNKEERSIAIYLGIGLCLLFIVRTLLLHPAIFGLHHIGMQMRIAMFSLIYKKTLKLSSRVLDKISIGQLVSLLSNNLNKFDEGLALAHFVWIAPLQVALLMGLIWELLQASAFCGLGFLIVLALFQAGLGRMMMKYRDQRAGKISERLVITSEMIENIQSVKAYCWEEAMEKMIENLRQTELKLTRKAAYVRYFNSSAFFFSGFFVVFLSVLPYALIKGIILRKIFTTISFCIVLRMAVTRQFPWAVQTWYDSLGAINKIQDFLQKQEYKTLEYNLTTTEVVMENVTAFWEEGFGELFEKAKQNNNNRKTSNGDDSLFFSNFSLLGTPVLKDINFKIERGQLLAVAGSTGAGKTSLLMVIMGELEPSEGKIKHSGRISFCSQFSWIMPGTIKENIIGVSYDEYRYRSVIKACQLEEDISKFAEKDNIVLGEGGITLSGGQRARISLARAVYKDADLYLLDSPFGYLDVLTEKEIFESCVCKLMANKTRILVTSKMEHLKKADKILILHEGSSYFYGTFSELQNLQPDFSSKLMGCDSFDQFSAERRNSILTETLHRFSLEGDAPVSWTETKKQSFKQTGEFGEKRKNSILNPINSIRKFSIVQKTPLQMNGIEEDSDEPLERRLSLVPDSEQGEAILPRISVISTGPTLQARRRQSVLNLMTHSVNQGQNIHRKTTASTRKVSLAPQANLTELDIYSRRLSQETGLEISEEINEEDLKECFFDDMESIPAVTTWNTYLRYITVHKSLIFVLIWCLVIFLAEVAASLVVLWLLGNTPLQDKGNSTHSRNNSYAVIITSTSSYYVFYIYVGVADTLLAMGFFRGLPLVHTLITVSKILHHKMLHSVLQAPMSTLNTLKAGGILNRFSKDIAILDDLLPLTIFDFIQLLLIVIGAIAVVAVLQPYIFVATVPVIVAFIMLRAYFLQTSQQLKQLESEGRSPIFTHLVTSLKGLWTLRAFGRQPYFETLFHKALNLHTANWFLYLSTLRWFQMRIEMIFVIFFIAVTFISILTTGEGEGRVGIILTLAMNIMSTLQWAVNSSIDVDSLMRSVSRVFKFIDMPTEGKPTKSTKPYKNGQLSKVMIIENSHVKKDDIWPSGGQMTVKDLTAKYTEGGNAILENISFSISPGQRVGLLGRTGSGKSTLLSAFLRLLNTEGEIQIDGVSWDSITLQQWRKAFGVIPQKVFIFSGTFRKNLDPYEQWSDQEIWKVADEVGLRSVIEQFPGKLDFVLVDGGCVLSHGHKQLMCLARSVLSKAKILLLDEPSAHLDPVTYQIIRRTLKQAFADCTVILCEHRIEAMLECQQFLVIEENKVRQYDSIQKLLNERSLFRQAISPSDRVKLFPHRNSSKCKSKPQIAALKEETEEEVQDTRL", "assay": "YFP fluorescence quenching functional assay (iodide influx), HEK293 cells with F508del CFTR and halide sensitive YFP", "format": "cell-based", "details": "10 μM, 24 h", "summary_of_the_method": "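HEK293 Griptite cells stably expressing F508del CFTR, transiently transfected with halide-sensitive eYFP, treated 24 h with 10 μM compound in triplicate, then stimulated 20 min with 25 μM forskolin, 45 μM IBMX and 50 μM genistein. YFP quench after 50 mM iodide imaged 15 times over 40 s on 150-300 cells/well.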"}}, "note": "“Also recorded” adds a separate entry of the source. Where a name gives a salt, the structure may show the parent alone.", "data": [{"smiles": "O=C(OCC(O)CO)c1ccccc1Nc1ccnc2cc(Cl)ccc12", "note": "(centres unmarked) [Glafenine hydrochloride, 2-[(7-chloro-4-quinolinyl)amino]benzoic acid 2,3-dihydroxypropyl ester]", "values": [{"measurement": "forskolin+genistein-stimulated current compared to mice fed with saline alone", "setting": "ΔF508-CFTR [1]", "result": "~7", "unit": "fold"}, {"measurement": "forskolin+genistein-stimulated current versus vehicle alone", "setting": "ΔF508-CFTR [2]", "result": "~12", "unit": "fold"}, {"measurement": "restoration of the secretory response observed in wild-type mice", "setting": "ΔF508-CFTR [2]", "result": "~46% and ≈ 46%"}, {"measurement": "functional correction in YFP quenching assay", "setting": "F508del CFTR", "result": "test positive in each case; also recorded: enhanced the cAMP-stimulated iodide influx"}, {"measurement": "remaining activity at 10 µM", "setting": "F508del CFTR; HEK293, nc = 100% pc = 69.2, read-out: % YFP quench", "result": 80, "unit": "%"}]}]}
